Key:
CCKB receptor = molecular target: T1, CCKB receptor (Mus musculus, UniProt P56481); assay: CCKB receptor radioligand binding assay in mouse cortical membranes ([125I]-CCK8S); conditions: [125I]-CCK8S 200 pM, 150 min at 21±3°; for Ki: read-out: CCKB pKi (converted)
T1 construct: The cortex was dissected, weighed and homogenised in 40ml ice-cold buffer; tissue Charles River (supplier of the CD1 mice); host or cells: cerebral cortex membranes of male CD1 mice
T1 sequence (P56481 1-453): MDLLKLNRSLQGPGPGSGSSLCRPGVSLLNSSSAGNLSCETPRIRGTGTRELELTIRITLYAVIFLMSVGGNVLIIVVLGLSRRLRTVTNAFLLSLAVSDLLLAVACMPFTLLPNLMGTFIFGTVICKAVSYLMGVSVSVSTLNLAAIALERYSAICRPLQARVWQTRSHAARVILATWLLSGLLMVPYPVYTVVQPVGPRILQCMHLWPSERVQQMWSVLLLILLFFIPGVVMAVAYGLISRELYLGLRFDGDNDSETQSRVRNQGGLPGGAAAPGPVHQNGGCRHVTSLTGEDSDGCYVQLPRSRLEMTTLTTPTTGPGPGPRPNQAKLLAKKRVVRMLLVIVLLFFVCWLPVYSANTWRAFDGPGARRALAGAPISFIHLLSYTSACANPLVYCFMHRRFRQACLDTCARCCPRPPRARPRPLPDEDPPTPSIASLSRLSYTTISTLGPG
Protocol: The compounds of the examples were tested for binding at the CCKB receptor in mouse cortical membranes by means of a radioligand binding assay. The procedure was as follows:
The whole brains from male mice (CD1 22-25 g; Charles River) were removed and placed in ice-cold buffer (pH7.2 @ 21±3°) of the following composition (mM); 10 HEPES, 130 NaCl, 4.7 KCl, 5 MgCl2, 1 EDTA and containing 0.25g.^-1 bacitracin. The cortex was dissected, weighed and homogenised in 40ml ice-cold buffer using a Teflon-in-glass homogeniser. The homogenate was centrifuged at 39,800g for 20 min at 4°, the supernatant discarded and the pellet resuspended by homogenisation in fresh buffer. The homogenate was recentrifuged (39,800 g; 20 min @ 4°) and the final pellet was resuspended in HEPES buffer to give a tissue concentration of 2 mg.ml^-1 (original wet weight).
The membranes ([…]) were incubated for 150 min at 21±3° in a final volume of 0.5 ml with HEPES buffer containing [^125 I]-CCK8S (0.05 ml; 200 pM NEN 2200 Ci.mmol^-1) and competing compound. Total and non-specific binding of [^125 I]-CCK8S were defined using 0.05 ml of buffer and 0.05 ml of […] L-365,260, respectively. The assay was terminated by rapid filtration through pre-soaked Whatman GF/B filters using a Brandell Cell harvester. The filters were washed (3×3 ml) with ice-cold 50 mM Tris-HCl (pH7.4 @ 4° C.) and bound radioactivity determined by counting (1 min.) in a gamma-counter.

CCKA = molecular target: T2, CCKA (Cavia porcellus, UniProt Q63931); assay: CCKA radioligand binding assay in guinea-pig pancreas membranes ([125I]-CCK8(S)); conditions: PD134,308 present, 150 minutes at 21±3°; for Ki: read-out: CCKA pKi (converted)
T2 construct: The pancreatata were homogenised in 40 ml ice-cold HEPES buffer using a polytron; from tissue; host or cells: pancreas membranes of male Dunkin Hartley guinea-pigs
T2 sequence (Q63931 1-430): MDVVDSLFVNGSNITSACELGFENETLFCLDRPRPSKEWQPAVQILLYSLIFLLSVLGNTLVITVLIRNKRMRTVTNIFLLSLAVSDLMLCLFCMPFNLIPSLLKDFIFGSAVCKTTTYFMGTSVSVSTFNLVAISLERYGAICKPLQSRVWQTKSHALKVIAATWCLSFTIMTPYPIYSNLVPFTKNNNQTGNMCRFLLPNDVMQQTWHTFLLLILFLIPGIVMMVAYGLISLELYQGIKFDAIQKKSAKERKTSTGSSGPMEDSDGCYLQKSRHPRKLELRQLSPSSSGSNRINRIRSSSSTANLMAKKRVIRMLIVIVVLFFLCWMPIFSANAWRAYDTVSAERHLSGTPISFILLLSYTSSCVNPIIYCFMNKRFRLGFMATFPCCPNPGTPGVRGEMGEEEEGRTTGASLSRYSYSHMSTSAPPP
Protocol: The compounds of the examples were also tested in a CCKA as follows:
The pancreatata were removed from male guinea-pigs (200-300 g; Dunkin Hartley) and placed in ice-cold HEPES buffer (pH 7.2 @ 21 ±3). The pancreatata were homogenised in 40 ml ice-cold HEPES buffer using a polytron (Brinkmann, PT10, setting 10) 4×1 second. The homogenate was centrifuged at 39,800 g for 15 min at 4°. The supernatant was discarded and the pellet re-suspended using a Teflon-in-glass homogeniser in 20 volumes of fresh buffer and re-centrifuged as above.
The final pellet was re-suspended using a Teflon-in-glass homogeniser to a tissue concentration of 1 mg.ml^-1 (original wet weight), and filtered through 500 μm pore-size Nytex mesh.
The membranes (400 μl; containing 0.375 μM PD134,308) are incubated for 150 minutes at 21±3° in a final volume of 0.5 ml with HEPES buffer containing [^125 I]-CCK8 (S) (50 μl; […]) and competing compound. Total and non-specific binding of [^125 I]-CCK8 (S) are defined using 50 μl of buffer and 50 μl of 100 nM L-364,718 respectively. The assay is terminated by rapid filtration through pre-soaked Whatman GF/B filters using a Brandell Cell Harvester. The filters were washed (3×3 ml) with ice-cold 50 mM Tris HCl (pH 7.4 at 4°) and bound radioactivity is determined by counting (1 min) in a gamma counter.

CCKB pKi (CCKB receptor)	CCKA pKi (CCKA)	Ki (CCKB receptor)	Ki (CCKA)	Compound
5.8	–	–	–	5-(1S-(3,5-diaminophenylaminocarbonyl)-2-phenylethylaminocarbonyl)-6-(1-adamantanemethyl-N-methylaminocarbonyl)-indole and regioisomer with substituents at positions 5 and 6 reversed [Example 43]
5.8	5.0	–	–	5-(1S-(3,5-diethoxycarbonylphenylaminocarbonyl)-2-phenylethylaminocarbonyl)-6-(1-adamantanemethylaminocarbonyl)-indole and regioisomer with substituents at positions 5 and 6 reversed [Example 66]
–	–	0.398 µM	–	O=C(O)c1cc(NC(=O)[C@H](Cc2ccccc2)NC(=O)c2cc3cc[nH]c3cc2C(=O)NCC2CCC(O)CC2)cc(C(=O)O)c1 (single isomer, unassigned) [Example 110, 5-(1S-(3,5-dicarboxyphenylaminocarbonyl)-2-phenylethylaminocarbonyl)-6-(4-hydroxycyclohexanemethylaminocarbonyl)-indole]
–	–	0.000398 µM	3.16 µM	Cn1ccc2cc(C(=O)N[C@@H](Cc3ccccc3)C(=O)Nc3cc(C(=O)O)cc(C(=O)O)c3)c(C(=O)NCC34CC5CC(CC(C5)C3)C4)cc21 [Example 36, 5-(1S-(3,5-dicarboxyphenylaminocarbonyl)-2-phenylethylaminocarbonyl)-6-(1-adamantanemethylaminocarbonyl)-N-methyl-indole]
7.1	6.1	–	–	O=C(O)c1cc(NC(=O)[C@H](Cc2ccccc2)NC(=O)c2cc3ccn(S(=O)(=O)c4ccccc4)c3cc2C(=O)NCC23CC4CC(CC(C4)C2)C3)cc(C(=O)O)c1 [Example 45, 5-(1S-(3,5-dicarboxyphenylaminocarbonyl)-2-phenylethylaminocarbonyl)-6-(1-adamantanemethylamino-carbonyl)-N-phenylsulphonyl-indole]
–	–	0.0631 µM	1.26 µM	O=C(O)c1cc(NC(=O)[C@H](Cc2ccccc2)NC(=O)c2cc3[nH]c4ccccc4c3cc2C(=O)NCC23CC4CC(CC(C4)C2)C3)cc(C(=O)O)c1 [Example 52, 2-(1S-(3,5-dicarboxyphenylaminocarbonyl)-2-phenylethylaminocarbonyl)-3-(1-adamantanemethylaminocarbonyl)-carbazole]
–	–	0.0631 µM	–	Nc1ccc(C[C@H](NC(=O)c2cc3[nH]cnc3cc2C(=O)NCC23CC4CC(CC(C4)C2)C3)C(=O)Nc2cc(C(=O)O)cc(C(=O)O)c2)cc1 [Example 64, 5-(1S-(3,5-dicarboxyphenylaminocarbonyl)-2-(4-aminophenyl)-ethylaminocarbonyl)-6-(1-adamantanemethylaminocarbonyl)-benzimidazole]
–	–	2 µM	–	O=C(O[C@H]1CO[C@@H](c2ccccc2)OC1)c1cc(NC(=O)[C@H](Cc2ccccc2)NC(=O)c2cc3cc[nH]c3cc2C(=O)NCC23CC4CC(CC(C4)C2)C3)cc(C(=O)O[C@H]2CO[C@@H](c3ccccc3)OC2)c1 [Example 106, 5-(1S-(3,5-di-(cis-4-phenyl-3,5-dioxacyclohexaneoxycarbonyl)-phenylaminocarbonyl)-2-phenylethylaminocarbonyl)-6-(1-adamantanemethyl-aminocarbonyl)-indole]
–	5.1	–	–	CC(C)(C)C(=O)OCOC(=O)c1cc(NC(=O)[C@H](Cc2ccccc2)NC(=O)c2cc3ccoc3cc2C(=O)NCC23CC4CC(CC(C4)C2)C3)cc(C(=O)OCOC(=O)C(C)(C)C)c1 [Example 121, 5-(1S-(3,5-di-t-butylcarbonyloxymethyloxycarbonylphenylaminocarbonyl)-2-phenylethylaminocarbonyl)-6-(1-adamantanemethylaminocarbonyl)-benzofuran]
8.1	–	–	–	CC(=O)NS(=O)(=O)c1cccc(NC(=O)[C@H](Cc2ccccc2)NC(=O)c2cc3cc[nH]c3cc2C(=O)NCC23CC4CC(CC(C4)C2)C3)c1 [Example 138, 5-(1S-(3-acetylaminosulphonylphenylaminocarbonyl)-2-phenylethylaminocarbonyl)-6-(1-adamantanemethylaminocarbonyl)-indole]

Further lines, the compound ahead of its results:

Compound	CCKB pKi (CCKB receptor)	CCKA pKi (CCKA)	Ki (CCKB receptor)	Ki (CCKA)
1/2-(1-adamantanemethylaminocarbonyl)-naphthoic acid Regioisomer 2 [Example 22]	5.9	5.4	–	–
5-(1S-(trans3,4-dimethoxycarbonylpyrrolidinocarbonyl)-2-phenylethylaminocarbonyl)-6-(1-adamantanemethylaminocarbonyl)-indole and regioisomer with substituents at positions 5 and 6 reversed [Example 49]	5.6	5.6	–	–
COC(=O)[C@@H]1CCCN1C(=O)c1cc2ccccc2cc1C(=O)NCC12CC3CC(CC(C3)C1)C2 [Example 6, 2-(2S-methoxycarbonylpyrrolidino-carbonyl)-3-(1-adamantanemethylaminocarbonyl)-naphthalene]	–	–	1 µM	2.51 µM
COC(=O)c1cc(NC(=O)[C@H](Cc2ccccc2)NC(=O)c2cc3ccccc3cc2C(=O)NCC23CC4CC(CC(C4)C2)C3)cc(C(=O)OC)c1 [Example 17, 2-(1S-(3,5-dimethoxycarbonyl-phenylamino-carbonyl)-2-phenylethylaminocarbonyl)-3-(1-adamantanemethylaminocarbonyl)-naphthalene]	–	–	–	15.8 µM
COC(=O)c1cc(NC(=O)[C@H](Cc2ccccc2)NC(=O)c2cc3ccccc3cc2C(=O)NCC23CC4CC(CC(C4)C2)C3)cc(C(=O)O)c1 [Example 18, 2-(1S-(3-methoxycarbonyl-5-carboxyphenylaminocarbonyl)-2-phenylethylaminocarbonyl)-3-(1-adamantanemethylaminocarbonyl)-naphthalene]	–	–	–	0.501 µM
O=C(NCC12CC3CC(CC(C3)C1)C2)c1cc(Cl)c(Cl)cc1C(=O)N1CCC[C@@H]1C(=O)O [Example 19, (2R-carboxypyrrolidino-carbonyl)-2-(1-adamantanemethylaminocarbonylmethyl)-4,5-dichlorobenzene]	–	–	2 µM	5.01 µM
O=C(O)c1cccc2cccc(C(=O)NCC34CC5CC(CC(C5)C3)C4)c12 [Example 20, 1-(1-adamantanemethylaminocarbonyl)-8-naphthoic acid]	–	–	10 µM	10 µM

— patent US5795907A, “Gastin and CCK receptor ligands” (James Black Foundation Limited, priority 1994, dated 1998)
